According to patent publication US20100227876A1 (priority 2009, published 2010):

How the values were obtained:
human = settings: cited from earlier work
rats = settings: rat, in vivo; cited from earlier work
male Sprague-Dawley rats = experiment: animal or person; format: in vivo, rat; settings: sc

Structure (SMILES): Oc1ccc2c(c1)[C@@]13CCCC[C@@]1(O)[C@@H](C2)N(CC1CCC1)CC3 [butorphanol]
- effective human dose (human): 2 mg

Structure (SMILES): Oc1ccc2c3c1O[C@H]1c4[nH]c5c(c4C[C@@]4(O)[C@@H](C2)N(CC2CC2)CC[C@]314)C[C@@]1(O)[C@H]2Cc3ccc(O)c4c3[C@@]1(CCN2CC1CC1)[C@H]5O4 [n-BNI, nor-binaltorphimine]
- M.P.E. (maximal percent effect, antinociception) (rats): 1.0%

Structure (SMILES): COC(=O)/C=C/C(=O)N[C@@H]1CC[C@@]2(O)[C@H]3Cc4ccc(O)c5c4[C@@]2(CCN3CC2CC2)[C@H]1O5 [β-FNA, beta-funaltrexamine]
- M.P.E. (maximal percent effect, antinociception) (rats): 1.0%

Structure (SMILES): CN1CC[C@]23c4c5ccc(O)c4O[C@H]2C(=O)CC[C@@]3(O)[C@H]1C5 [oxymorphone]
- ED50 (male Sprague-Dawley rats; Rattus norvegicus, read-out: ED50 (M.P.E.=50%)): 0.078 mg/kg
- peak effect, time post injection (male Sprague-Dawley rats; rat, in vivo): 30 min
